In patent US9777005B2 (Takeda Pharmaceutical Company Limited, priority 2012, dated 2017):

Target: T1, human M1 receptor (hCHRM1) (Homo sapiens, UniProt P11229)
T1 construct: expressed in transfected cells; host or cells: CHO-K1
T1 sequence (P11229 1-460): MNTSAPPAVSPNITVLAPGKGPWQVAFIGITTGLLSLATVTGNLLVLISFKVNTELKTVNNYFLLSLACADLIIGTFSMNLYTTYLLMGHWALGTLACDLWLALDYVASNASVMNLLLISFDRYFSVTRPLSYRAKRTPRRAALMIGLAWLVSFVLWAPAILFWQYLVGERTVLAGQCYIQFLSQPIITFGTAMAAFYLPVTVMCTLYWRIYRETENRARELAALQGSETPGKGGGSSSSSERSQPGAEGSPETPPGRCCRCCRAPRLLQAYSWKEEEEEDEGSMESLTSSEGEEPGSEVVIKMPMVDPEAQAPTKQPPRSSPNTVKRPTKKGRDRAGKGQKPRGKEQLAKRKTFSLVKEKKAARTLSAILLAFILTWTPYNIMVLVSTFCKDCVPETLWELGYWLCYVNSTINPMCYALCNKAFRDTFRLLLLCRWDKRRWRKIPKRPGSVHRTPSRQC
Experiment: Measurement of M1 receptor positive allosteric modulator (M1PAM) activity, calcium fluorescence (FLIPRtetra) in CHO-K1 cells in the presence of acetylcholine at EC20
Format: cell-based
Conditions: in the presence of acetylcholine at EC20 (final 0.6 nM), CHO-K1 cells expressing hCHRM1; for EC50: inflection point of M1PAM activity, read-out: IP value; for activity (%) at 10 μM: test compound 10 μM
Method in brief: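 CHO-K1 cells expressing human M1 were loaded with Fluo-4 AM, and compound was added with acetylcholine at EC20 (final 0.6 nM). Calcium fluorescence was read on FLIPRtetra for 1 min. Activity was normalized to 1 μM acetylcholine (100%) and DMSO (0%), and the curve inflection point was reported as IP.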

SMILES | EC50 [nM] | activity (%) at 10 μM [%]
Cn1cc(-c2ccc(CN3Cc4ccnc(OC5CCC5)c4C3=O)cc2)cn1 [Example 348, 4-(cyclobutyloxy)-2-(4-(1-methyl-1H-pyrazol-4-yl)benzyl)-1,2-dihydro-3H-pyrrolo[3,4-c]pyridin-3-one] | 74 | 97
Cn1ccc(-c2ccc(CN3Cc4ccnc(Oc5c(F)cc(C#N)cc5F)c4C3=O)c(F)c2)n1 [Example 387, 3,5-difluoro-4-((2-(2-fluoro-4-(1-methyl-1H-pyrazol-3-yl)benzyl)-3-oxo-2,3-dihydro-1H-pyrrolo[3,4-c]pyridin-4-yl)oxy)benzonitrile] | 7.1 | 102
Cn1ccc(-c2ccc(CN3Cc4ncnc(Oc5c(F)cc(F)cc5F)c4C3=O)cc2)n1 [Example 366, 6-(4-(1-methyl-1H-pyrazol-3-yl)benzyl)-4-(2,4,6-trifluorophenoxy)-6,7-dihydro-5H-pyrrolo[3,4-d]pyrimidin-5-one] | 42 | 104
Cn1cc(-c2cccc(CN3Cc4cccc(O[C@H]5CCCC[C@@H]5O)c4C3=O)c2)cn1 (relative stereo) [Example 39, 7-((trans-2-hydroxycyclohexyl)oxy)-2-(3-(1-methyl-1H-pyrazol-4-yl)benzyl)isoindolin-1-one] | 58 | 97
O=C1c2c(ccnc2OCC2CCCO2)CN1Cc1ccc(-n2cc(F)cn2)cc1 (stereo not drawn) [Example 234, 2-(4-(4-fluoro-1H-pyrazol-1-yl)benzyl)-4-((tetrahydrofuran-2-yl)methoxy)-1,2-dihydro-3H-pyrrolo[3,4-c]pyridin-3-one] | 38 | 91
Cn1cc(-c2ccc(CN3Cc4ccnc(OCC5CC5)c4C3=O)cc2)nn1 [Example 337, 4-(cyclopropylmethoxy)-2-(4-(1-methyl-1H-1,2,3-triazol-4-yl)benzyl)-1,2-dihydro-3H-pyrrolo[3,4-c]pyridin-3-one] | 49 | 92
Cn1ccc(-c2cc(F)c(CN3Cc4ccnc(O[C@H]5CCC[C@@H]5O)c4C3=O)c(F)c2)n1 (relative stereo) [Example 328, 2-(2,6-difluoro-4-(1-methyl-1H-pyrazol-3-yl)benzyl)-4-((trans-2-hydroxycyclopentyl)oxy)-1,2-dihydro-3H-pyrrolo[3,4-c]pyridin-3-one] | 6.4 | 97
C[C@@H](O)[C@@H](C)Oc1nccc2c1C(=O)N(Cc1ccc(-c3ccn(C)n3)cc1)C2 [Example 426, 4-(((2R,3R)-3-hydroxybutan-2-yl)oxy)-2-(4-(1-methyl-1H-pyrazol-3-yl)benzyl)-1,2-dihydro-3H-pyrrolo[3,4-c]pyridin-3-one] | 8.8 | 102
Cn1cc(-c2ccc(CN3Cc4cccc(Oc5c(F)cccc5C#N)c4C3=O)c(Cl)c2)cn1 [Example 68, 2-((2-(2-chloro-4-(1-methyl-1H-pyrazol-4-yl)benzyl)-3-oxo-2,3-dihydro-1H-isoindol-4-yl)oxy)-3-fluorobenzonitrile] | 72 | 109
COc1ccc(F)c(Oc2nccc3c2C(=O)N(Cc2ccc(-c4cn(C)nc4C)cc2F)C3)c1F [Example 283, 4-(2,6-difluoro-3-methoxyphenoxy)-2-(4-(1,3-dimethyl-1H-pyrazol-4-yl)-2-fluorobenzyl)-1,2-dihydro-3H-pyrrolo[3,4-c]pyridin-3-one] | 10 | 97
CCNC(=O)c1ccc(CN2Cc3ccnc(Oc4ccc(C(F)(F)F)cc4F)c3C2=O)cc1 [Example 432, N-ethyl-4-((4-(2-fluoro-4-(trifluoromethyl)phenoxy)-3-oxo-1,3-dihydro-2H-pyrrolo[3,4-c]pyridin-2-yl)methyl)benzamide] | 52 | 92
Cn1cc(-c2ccc(CN3Cc4cccc(OC[C@H]5CCCO5)c4C3=O)cc2)cn1 [Example 13, 2-(4-(1-methyl-1H-pyrazol-4-yl)benzyl)-7-((2R)-(tetrahydrofuran-2-yl)methoxy)isoindolin-1-one] | 43 | 102
NC(=O)c1ccc(CN2Cc3ccnc(Oc4ccc(C5CC5)cc4F)c3C2=O)cc1F [Example 446, 4-((4-(4-cyclopropyl-2-fluorophenoxy)-3-oxo-1,3-dihydro-2H-pyrrolo[3,4-c]pyridin-2-yl)methyl)-2-fluorobenzamide] | 26 | 107
CNC(=O)c1ccc(CN2Cc3ccnc(Oc4ccc(C(F)(F)F)cc4F)c3C2=O)cn1 [Example 456, 5-((4-(2-fluoro-4-(trifluoromethyl)phenoxy)-3-oxo-1,3-dihydro-2H-pyrrolo[3,4-c]pyridin-2-yl)methyl)-N-methylpyridine-2-carboxamide] | 46 | 91
CC(C)n1cc(-c2ccc(CN3Cc4ccnc(Oc5c(F)cc(C#N)cc5F)c4C3=O)cc2)cn1 [Example 384, 3,5-difluoro-4-((2-(4-(1-isopropyl-1H-pyrazol-4-yl)benzyl)-3-oxo-2,3-dihydro-1H-pyrrolo[3,4-c]pyridin-4-yl)oxy)benzonitrile] | 7.8 | 91
Cn1cc(-c2ccc(CN3Cc4cccc(O[C@H]5CCC[C@@H]5O)c4C3=O)cc2)nn1 (relative stereo) [Example 235, 7-((trans-2-hydroxycyclopentyl)oxy)-2-(4-(1-methyl-1H-1,2,3-triazol-4-yl)benzyl)isoindolin-1-one] | 14 | 105
Cc1nn(C)cc1-c1ccc(CN2Cc3cccc(O[C@@H]4CCOC[C@H]4O)c3C2=O)cc1 (single isomer, unassigned) [Example 248, 1,5-anhydro-2-deoxy-3-O-(2-(4-(1,3-dimethyl-1H-pyrazol-4-yl)benzyl)-3-oxo-2,3-dihydro-1H-isoindol-4-yl)-threo-pentitol] | 3 | 117
N#Cc1cc(F)c(Oc2cccc3c2C(=O)N(Cc2ccc(-n4cccn4)cc2)C3)c(F)c1 [Example 364, 3,5-difluoro-4-((3-oxo-2-(4-(1H-pyrazol-1-yl)benzyl)-2,3-dihydro-1H-isoindol-4-yl)oxy)benzonitrile] | 31 | 86
Cc1nn(C)cc1-c1ccc(CN2Cc3ccnc(O[C@H]4CCC[C@@H]4O)c3C2=O)cc1 (relative stereo) [Example 227, 2-(4-(1,3-dimethyl-1H-pyrazol-4-yl)benzyl)-4-((trans-2-hydroxycyclopentyl)oxy)-1,2-dihydro-3H-pyrrolo[3,4-c]pyridin-3-one] | 10 | 99
Cn1cc(-c2ccc(CN3Cc4cccc(Oc5cccnc5C#N)c4C3=O)cc2)cn1 [Example 20, 3-((2-(4-(1-methyl-1H-pyrazol-4-yl)benzyl)-3-oxo-2,3-dihydro-1H-isoindol-4-yl)oxy)pyridine-2-carbonitrile] | 80 | 100
Cn1cc(-c2ccc(CN3Cc4cccc(OCCn5cccn5)c4C3=O)cc2)cn1 [Example 19, 2-(4-(1-methyl-1H-pyrazol-4-yl)benzyl)-7-(2-(H-pyrazol-1-yl)ethoxy)isoindolin-1-one] | 110 | 91
